From US9096602B2, “Substituted pyrrolo[2,3-B]pyrazines as ATR kinase inhibitors” (Vertex Pharmaceuticals Incorporated, priority 2011, dated 2015) come the findings set out here.

T1 sequence (Q13535 whole entry): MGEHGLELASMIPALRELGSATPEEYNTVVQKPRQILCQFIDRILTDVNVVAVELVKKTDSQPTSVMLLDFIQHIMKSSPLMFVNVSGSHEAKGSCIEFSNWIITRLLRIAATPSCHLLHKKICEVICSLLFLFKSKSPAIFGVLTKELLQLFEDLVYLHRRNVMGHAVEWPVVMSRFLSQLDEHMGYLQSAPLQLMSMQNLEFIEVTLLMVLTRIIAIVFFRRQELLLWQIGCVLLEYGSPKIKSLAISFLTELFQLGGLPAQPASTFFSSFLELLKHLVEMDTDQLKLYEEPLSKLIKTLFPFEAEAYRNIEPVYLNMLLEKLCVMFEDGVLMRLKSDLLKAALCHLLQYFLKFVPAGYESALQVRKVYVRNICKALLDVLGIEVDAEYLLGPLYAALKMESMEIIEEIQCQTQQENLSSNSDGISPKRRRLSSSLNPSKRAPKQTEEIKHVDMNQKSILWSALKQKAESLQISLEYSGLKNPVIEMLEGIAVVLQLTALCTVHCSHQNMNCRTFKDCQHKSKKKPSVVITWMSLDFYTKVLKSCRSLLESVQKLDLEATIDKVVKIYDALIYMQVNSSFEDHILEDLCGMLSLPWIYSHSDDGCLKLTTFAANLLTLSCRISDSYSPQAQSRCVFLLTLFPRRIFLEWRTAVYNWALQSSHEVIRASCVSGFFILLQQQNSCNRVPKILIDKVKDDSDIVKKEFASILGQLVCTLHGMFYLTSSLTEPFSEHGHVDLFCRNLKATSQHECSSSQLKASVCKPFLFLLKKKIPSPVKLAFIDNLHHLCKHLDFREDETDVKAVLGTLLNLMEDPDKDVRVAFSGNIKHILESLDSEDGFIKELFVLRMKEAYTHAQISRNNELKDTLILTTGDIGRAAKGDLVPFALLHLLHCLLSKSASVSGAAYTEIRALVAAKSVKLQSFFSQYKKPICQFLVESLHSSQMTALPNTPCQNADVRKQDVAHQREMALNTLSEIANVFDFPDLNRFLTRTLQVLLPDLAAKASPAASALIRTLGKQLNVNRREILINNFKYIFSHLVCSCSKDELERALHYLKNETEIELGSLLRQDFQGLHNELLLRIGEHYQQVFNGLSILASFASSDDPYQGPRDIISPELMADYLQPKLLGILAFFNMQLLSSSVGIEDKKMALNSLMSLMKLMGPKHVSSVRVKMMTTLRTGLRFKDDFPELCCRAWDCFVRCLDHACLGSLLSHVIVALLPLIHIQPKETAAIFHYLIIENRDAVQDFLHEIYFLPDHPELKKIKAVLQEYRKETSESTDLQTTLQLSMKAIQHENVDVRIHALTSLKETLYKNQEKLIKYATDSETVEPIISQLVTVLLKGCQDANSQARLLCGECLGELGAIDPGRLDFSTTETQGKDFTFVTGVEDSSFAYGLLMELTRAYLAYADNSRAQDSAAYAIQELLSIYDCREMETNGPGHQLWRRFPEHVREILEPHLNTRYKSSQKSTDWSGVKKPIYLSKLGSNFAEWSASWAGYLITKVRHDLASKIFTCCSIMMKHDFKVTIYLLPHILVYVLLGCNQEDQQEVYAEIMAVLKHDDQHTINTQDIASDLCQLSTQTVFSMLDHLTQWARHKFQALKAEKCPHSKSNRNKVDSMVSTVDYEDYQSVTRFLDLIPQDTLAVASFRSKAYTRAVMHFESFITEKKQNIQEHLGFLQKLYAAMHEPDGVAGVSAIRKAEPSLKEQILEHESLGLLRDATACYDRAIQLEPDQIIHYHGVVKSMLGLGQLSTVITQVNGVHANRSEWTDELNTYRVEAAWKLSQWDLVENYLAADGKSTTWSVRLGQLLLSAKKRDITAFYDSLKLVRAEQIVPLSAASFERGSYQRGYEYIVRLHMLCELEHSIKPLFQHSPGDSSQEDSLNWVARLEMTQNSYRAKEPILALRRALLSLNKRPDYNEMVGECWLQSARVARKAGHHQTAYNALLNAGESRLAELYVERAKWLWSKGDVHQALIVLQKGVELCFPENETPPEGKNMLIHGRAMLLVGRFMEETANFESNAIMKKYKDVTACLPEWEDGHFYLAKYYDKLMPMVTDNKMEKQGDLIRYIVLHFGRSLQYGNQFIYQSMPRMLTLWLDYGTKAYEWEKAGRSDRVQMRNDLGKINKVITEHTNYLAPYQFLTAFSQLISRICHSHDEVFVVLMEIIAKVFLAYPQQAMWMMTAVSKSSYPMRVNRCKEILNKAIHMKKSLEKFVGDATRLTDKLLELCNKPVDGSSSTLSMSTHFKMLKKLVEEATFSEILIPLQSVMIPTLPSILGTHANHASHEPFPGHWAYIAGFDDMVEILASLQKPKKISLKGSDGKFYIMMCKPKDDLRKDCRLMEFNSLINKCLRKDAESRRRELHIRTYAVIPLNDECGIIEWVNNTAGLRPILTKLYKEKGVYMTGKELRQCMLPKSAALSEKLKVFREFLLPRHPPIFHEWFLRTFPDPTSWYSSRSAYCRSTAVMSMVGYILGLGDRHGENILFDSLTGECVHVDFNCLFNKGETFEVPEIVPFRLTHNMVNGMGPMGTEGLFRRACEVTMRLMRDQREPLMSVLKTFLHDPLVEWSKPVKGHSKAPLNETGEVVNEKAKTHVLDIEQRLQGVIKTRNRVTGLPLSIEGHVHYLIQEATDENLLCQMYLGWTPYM

One experiment concerns the target T1, ATR kinase (full-length ATR) (Homo sapiens, UniProt Q13535).
T1 construct: Assays were carried out at 25° C. in the presence of 5 nM full-length ATR
Description: ATR Inhibition Assay (radioactive-phosphate incorporation). To be noted: Ki(app); 5 nM full-length ATR, 10 μM ATP, 800 μM target peptide, 25° C.; class symbols; read-out: ATR Inhibition Ki. It counts as biochemical. The method, then:
Compounds were screened for their ability to inhibit ATR kinase using a radioactive-phosphate incorporation assay. Assays were carried out in a mixture of 50 mM Tris/HCl (pH 7.5), 10 mM MgCl2 and 1 mM DTT. Final substrate concentrations were 10 μM [y-33P]ATP (3mCi 33P ATP/mmol ATP, Perkin Elmer) and 800 μM target peptide ([…]).
Assays were carried out at 25° C. in the presence of 5 nM full-length ATR. An assay stock buffer solution was prepared containing all of the reagents listed above, with the exception of ATP and the test compound of interest. […] The plate was pre-incubated for 10 minutes at 25° C. and the reaction initiated by addition of 15 μL [y-33P]ATP (final concentration 10 μM).
The reaction was stopped after […] by the addition of 30 μL 0.1M phosphoric acid containing 2 mM ATP. A multiscreen phosphocellulose filter 96-well plate (Millipore, Cat no. MAPHN0B50) was pretreated with 100 μL 0.2M phosphoric acid prior to the addition of 45 μL of the stopped assay mixture. The plate was washed with 5×200 μL 0.2M phosphoric acid.
After removing mean background values for all of the data points, Ki(app) data were calculated from non-linear regression analysis of the initial rate data using the Prism software package (GraphPad Prism version 3.0cx for Macintosh, GraphPad Software, San Diego Calif., USA).
As for `COCCNC(=O)c1c[nH]c2ncc(-c3ccc(S(=O)(=O)C(C)C)cc3)nc12` [Compound I-119, 2-(4-isopropylsulfonylphenyl)-N-(2-methoxyethyl)-5H-pyrrolo[2,3-b]pyrazine-7-carboxamide], the Ki was in the range of 100 to 500 nM.

In the case of `CC(C)S(=O)(=O)c1ccc(-c2cnc3[nH]cc(C(=O)Nc4cccc(O)c4)c3n2)cc1` [Compound I-22, N-(3-hydroxyphenyl)-2-(4-isopropylsulfonylphenyl)-5H-pyrrolo[2,3-b]pyrazine-7-carboxamide], the Ki is under 100 nM.

Take `CC(C)S(=O)(=O)c1ccc(-c2cnc3[nH]cc(C(=O)N4CCc5ccccc54)c3n2)cc1` [Compound I-7, indolin-1-yl-[2-(4-isopropylsulfonylphenyl)-5H-pyrrolo[2,3-b]pyrazin-7-yl]methanone]: the Ki was in the range of 100 to 500 nM.

As to `CC(C)S(=O)(=O)c1ccc(-c2cnc3[nH]cc(C(=O)Nc4cccnc4)c3n2)cc1` [Compound I-5, 2-(4-isopropylsulfonylphenyl)-N-(3-pyridyl)-5H-pyrrolo[2,3-b]pyrazine-7-carboxamide], the Ki was under 100 nM.

For `CC(C)S(=O)(=O)c1ccc(-c2cnc3[nH]cc(C(=O)N[C@H](C(N)=O)c4ccccc4)c3n2)cc1` [Compound I-124, N-[(1S)-2-amino-2-oxo-1-phenyl-ethyl]-2-(4-isopropylsulfonylphenyl)-5H-pyrrolo[2,3-b]pyrazine-7-carboxamide], the Ki lay in the range of 100 to 500 nM.

Take `CC(C)S(=O)(=O)c1ccc(-c2cnc3[nH]cc(C(=O)NC[C@H](O)c4ccccc4)c3n2)cc1` [Compound I-37, N-[(2R)-2-hydroxy-2-phenyl-ethyl]-2-(4-isopropylsulfonylphenyl)-5H-pyrrolo[2,3-b]pyrazine-7-carboxamide]: the Ki is under 100 nM.

As to `CC(C)S(=O)(=O)c1ccc(-c2cnc3[nH]cc(C(=O)NCc4ccc(N5CCOCC5)cc4)c3n2)cc1` [Compound I-38, 2-(4-isopropylsulfonylphenyl)-N-[(4-morpholinophenyl)methyl]-5H-pyrrolo[2,3-b]pyrazine-7-carboxamide], the Ki was in the range of 500 to 5000 nM.

Take `CC(C)S(=O)(=O)c1ccc(-c2cnc3[nH]cc(C(=O)Nc4ccccn4)c3n2)cc1` [Compound I-4, 2-(4-isopropylsulfonylphenyl)-N-(2-pyridyl)-5H-pyrrolo[2,3-b]pyrazine-7-carboxamide]: the Ki is 100 to 500 nM.

Turning to `CC(C)S(=O)(=O)c1ccc(-c2cnc3[nH]cc(C(=O)NC(CCO)c4ccc(F)cc4)c3n2)cc1` (stereo not drawn) [Compound I-78, N-[1-(4-fluorophenyl)-3-hydroxy-propyl]-2-(4-isopropylsulfonylphenyl)-5H-pyrrolo[2,3-b]pyrazine-7-carboxamide], the Ki fell in the range of 100 to 500 nM.

As for `Cc1cccc(CNC(=O)c2c[nH]c3ncc(-c4ccc(S(=O)(=O)C(C)C)cc4)nc23)c1C` [Compound I-68, N-[(2,3-dimethylphenyl)methyl]-2-(4-isopropylsulfonylphenyl)-5H-pyrrolo[2,3-b]pyrazine-7-carboxamide], the Ki is under 100 nM.

With `CC(c1ccc(Cl)cc1)N(C)C(=O)c1c[nH]c2ncc(-c3ccc(S(=O)(=O)C(C)C)cc3)nc12` (stereo not drawn) [Compound I-135, N-[1-(4-chlorophenyl)ethyl]-2-(4-isopropylsulfonylphenyl)-N-methyl-5H-pyrrolo[2,3-b]pyrazine-7-carboxamide], the Ki was under 100 nM.

For the compound `CC(C)S(=O)(=O)c1ccc(-c2cnc3[nH]cc(C(=O)NCC4CCC(CN)CC4)c3n2)cc1` (stereo not drawn) [Compound I-93, N-[[4-(aminomethyl)cyclohexyl]methyl]-2-(4-isopropylsulfonylphenyl)-5H-pyrrolo[2,3-b]pyrazine-7-carboxamide], the Ki is 100 to 500 nM.

For `CC(C)S(=O)(=O)c1ccc(-c2cnc3[nH]cc(C(=O)NC[C@@H](O)c4ccccc4)c3n2)cc1` [Compound I-62, N-[(2S)-2-hydroxy-2-phenyl-ethyl]-2-(4-isopropylsulfonylphenyl)-5H-pyrrolo[2,3-b]pyrazine-7-carboxamide], the Ki is under 100 nM.

With `CC(C)S(=O)(=O)c1ccc(-c2cnc3[nH]cc(C(=O)Nc4ccccc4CCO)c3n2)cc1` [Compound I-50, N-[2-(2-hydroxyethyl)phenyl]-2-(4-isopropylsulfonylphenyl)-5H-pyrrolo[2,3-b]pyrazine-7-carboxamide], the Ki is 100 to 500 nM.

For `CC(C)S(=O)(=O)c1ccc(-c2cnc3[nH]cc(C(=O)Nc4ccc(F)cc4)c3n2)cc1` [Compound I-72, N-(4-fluorophenyl)-2-(4-isopropylsulfonylphenyl)-5H-pyrrolo[2,3-b]pyrazine-7-carboxamide], the Ki is 100 to 500 nM.

Take `CC(C)S(=O)(=O)c1ccc(-c2cnc3[nH]cc(C(=O)NCC4(C)COC4)c3n2)cc1` [Compound I-105, 2-(4-isopropylsulfonylphenyl)-N-[(3-methyloxetan-3-yl)methyl]-5H-pyrrolo[2,3-b]pyrazine-7-carboxamide]: the Ki is 500 to 5000 nM.

For `CC(C)S(=O)(=O)c1ccc(-c2cnc3[nH]cc(C(=O)Nc4cccc(C(N)=O)c4)c3n2)cc1` [Compound I-36, N-(3-carbamoylphenyl)-2-(4-isopropylsulfonylphenyl)-5H-pyrrolo[2,3-b]pyrazine-7-carboxamide], the Ki was under 100 nM.

`CC(C)S(=O)(=O)c1ccc(-c2cnc3[nH]cc(C(=O)N[C@@H](C)c4ccc(F)cc4)c3n2)cc1` [Compound I-74, N-[(1S)-1-(4-fluorophenyl)ethyl]-2-(4-isopropylsulfonylphenyl)-5H-pyrrolo[2,3-b]pyrazine-7-carboxamide]: the Ki is 500 to 5000 nM.

`Cc1ccc(CNC(=O)c2c[nH]c3ncc(-c4ccc(S(=O)(=O)C(C)C)cc4)nc23)c(C)c1` [Compound I-82, N-[(2,4-dimethylphenyl)methyl]-2-(4-isopropylsulfonylphenyl)-5H-pyrrolo[2,3-b]pyrazine-7-carboxamide]: the Ki was under 100 nM.

As for `Cc1ccc([C@@H](CCO)NC(=O)c2c[nH]c3ncc(-c4ccc(S(=O)(=O)C(C)C)cc4)nc23)cc1` [Compound I-81, N-[(1R)-3-hydroxy-1-(p-tolyl)propyl]-2-(4-isopropylsulfonylphenyl)-5H-pyrrolo[2,3-b]pyrazine-7-carboxamide], the Ki was under 100 nM.

With `CCC(CC)NC(=O)c1c[nH]c2ncc(-c3ccc(S(=O)(=O)C(C)C)cc3)nc12` [Compound I-107, N-(1-ethylpropyl)-2-(4-isopropylsulfonylphenyl)-5H-pyrrolo[2,3-b]pyrazine-7-carboxamide], the Ki was 500 to 5000 nM.

The same experiment, now with this note: Ki(app); 5 nM full-length ATR, 10 μM ATP, 800 μM target peptide, 25° C.; given as numeric lower bound without unit; read-out: ATR Inhibition Ki.
`CC(C)S(=O)(=O)c1ccc(-c2cnc3[nH]cc(C(=O)N4CCCC(O)C4)c3n2)cc1` (stereo not drawn) [Compound I-23, (3-hydroxy-1-piperidyl)-[2-(4-isopropylsulfonylphenyl)-5H-pyrrolo[2,3-b]pyrazin-7-yl]methanone]: the Ki is over 4000 nM.

For the compound `CC(C)S(=O)(=O)c1ccc(-c2cnc3[nH]cc(C(=O)N4CCOc5ccccc5C4)c3n2)cc1` [Compound I-130, 3,5-dihydro-2H-1,4-benzoxazepin-4-yl-[2-(4-isopropylsulfonylphenyl)-5H-pyrrolo[2,3-b]pyrazin-7-yl]methanone], the Ki was over 250 nM.

For `CC(C)S(=O)(=O)c1ccc(-c2cnc3[nH]cc(C(=O)NCC4(N)CCCCC4)c3n2)cc1` [Compound I-90, N-[(1-aminocyclohexyl)methyl]-2-(4-isopropylsulfonylphenyl)-5H-pyrrolo[2,3-b]pyrazine-7-carboxamide], the Ki was over 250 nM.
